Where two headings read alike, the source gives them in different places.
Assays:
Assay type in all cases: cell-based
hA2b = hA2b (Homo sapiens (Human), UniProt P29275); assay: cAMP inhibition assay in hA2b/CHO cells; conditions: adenosine stimulation, read-out: cAMP & FLIPR IC50 (nM) hA2b
Procedure: (§1) hA2a/CHO, hA2b/CHO and mA2a/CHO (Genscript) were plated at 5×10^3 cells/well into 384-well polystyrene plates at the day of experiment. Compounds were pre-incubated with cells for 30 min at 37° C., 5% CO2. Then […] adenosine was added to the cells and incubated for 30 min at 37° C., 5% CO2. Detection reagent (CISBIO) was added and the plates were incubated for 60 min at room temperature. The signal was captured by Envision.

hA2a = hA2a (Homo sapiens (Human), UniProt P29274); assay: cAMP inhibition assay in hA2a/CHO cells; conditions: adenosine stimulation, read-out: cAMP & FLIPR IC50 (nM) hA2a
Sequence of hA2a (P29274 whole entry): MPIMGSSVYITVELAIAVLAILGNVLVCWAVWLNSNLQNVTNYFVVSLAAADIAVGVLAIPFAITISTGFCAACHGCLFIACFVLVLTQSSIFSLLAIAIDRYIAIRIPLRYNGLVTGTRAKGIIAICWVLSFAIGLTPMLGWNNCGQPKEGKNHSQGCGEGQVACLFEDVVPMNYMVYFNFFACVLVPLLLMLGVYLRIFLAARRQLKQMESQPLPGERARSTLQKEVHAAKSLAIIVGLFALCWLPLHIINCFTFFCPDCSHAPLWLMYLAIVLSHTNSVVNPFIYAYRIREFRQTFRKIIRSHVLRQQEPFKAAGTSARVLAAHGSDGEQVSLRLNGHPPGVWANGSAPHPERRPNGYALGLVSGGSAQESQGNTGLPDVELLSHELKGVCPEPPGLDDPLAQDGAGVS
Outline: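 CHO cells expressing human A2a, human A2b or mouse A2a, 5×10^3 cells/well, pre-incubated with compound 30 min at 37 °C, then stimulated with […] adenosine 30 min at 37 °C. cAMP read after 60 min room-temperature incubation with detection reagent.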

hA1 = hA1 (Homo sapiens (Human), UniProt P30542); assay: FLIPR inhibition assay in hADORA1/CHO (hA1 expressing) cells; conditions: FLIPR calcium, adenosine stimulation
Sequence of hA1 (P30542 whole entry): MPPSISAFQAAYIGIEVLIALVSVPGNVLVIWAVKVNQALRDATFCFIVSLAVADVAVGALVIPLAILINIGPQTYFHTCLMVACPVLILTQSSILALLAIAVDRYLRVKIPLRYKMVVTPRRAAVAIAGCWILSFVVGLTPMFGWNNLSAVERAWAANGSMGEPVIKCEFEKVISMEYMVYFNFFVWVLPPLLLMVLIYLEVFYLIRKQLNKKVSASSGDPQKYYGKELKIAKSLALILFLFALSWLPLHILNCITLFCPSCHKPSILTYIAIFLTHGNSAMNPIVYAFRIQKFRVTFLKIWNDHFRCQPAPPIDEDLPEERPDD
Outline: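 CHO cells expressing human A1 were plated at 1×10^4 cells/well the day before, then loaded with FLIPR Calcium 5 dye for 60 min at 37 °C, 5% CO2. Compounds were added at several concentrations for 400 s before stimulation with […] adenosine. The calcium signal was recorded by FLIPR.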

mA2a = mA2a (Mus musculus (Mouse), UniProt Q60613); assay: cAMP inhibition assay in mA2a/CHO cells; conditions: adenosine stimulation, read-out: cAMP & FLIPR IC50 (nM) mA2a
Sequence of mA2a (Q60613 whole entry): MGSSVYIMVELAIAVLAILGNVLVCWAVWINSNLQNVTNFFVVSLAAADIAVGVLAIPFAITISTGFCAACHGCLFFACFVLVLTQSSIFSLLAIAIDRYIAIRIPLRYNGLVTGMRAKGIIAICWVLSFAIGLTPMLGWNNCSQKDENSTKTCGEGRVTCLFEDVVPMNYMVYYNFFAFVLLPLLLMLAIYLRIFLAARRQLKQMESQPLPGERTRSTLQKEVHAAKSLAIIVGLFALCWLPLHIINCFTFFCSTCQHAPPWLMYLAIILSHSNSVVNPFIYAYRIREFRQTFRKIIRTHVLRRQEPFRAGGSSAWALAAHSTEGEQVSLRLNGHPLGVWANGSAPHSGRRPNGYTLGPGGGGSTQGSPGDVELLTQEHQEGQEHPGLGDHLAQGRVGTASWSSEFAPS
Procedure: as §1

[1] = hADORA1/CHO cells, read-out: cAMP & FLIPR IC50 (nM) hA1

Sequence of hA2b (P29275 whole entry): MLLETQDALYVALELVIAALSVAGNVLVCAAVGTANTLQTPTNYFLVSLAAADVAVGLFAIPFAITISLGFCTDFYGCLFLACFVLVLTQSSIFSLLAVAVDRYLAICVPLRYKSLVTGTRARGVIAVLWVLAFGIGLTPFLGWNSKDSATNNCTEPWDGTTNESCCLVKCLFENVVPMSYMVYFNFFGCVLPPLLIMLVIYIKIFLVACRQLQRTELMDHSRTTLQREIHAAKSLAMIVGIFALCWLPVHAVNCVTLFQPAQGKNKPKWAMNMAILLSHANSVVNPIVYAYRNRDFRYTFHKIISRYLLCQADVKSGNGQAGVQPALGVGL

Compound `Cc1cc(-c2c(-c3ccc(F)cc3)nc(N)n3nc(Cc4cccc(Cl)n4)nc23)ccn1` [Example 15, 2-[(6-chloropyridin-2-yl)methyl]-7-(4-fluorophenyl)-8-(2-methylpyridin-4-yl)-[1,2,4]triazolo[1,5-c]pyrimidin-5-amine] has an IC50 (hA2b) of 582 nM, an IC50 (hA2a) of 46 nM and an IC50 (hA1; [1]) of 27 nM. It also gave an IC50 (mA2a) of 88 nM.

`Cc1cnc2ccc(-c3c(-c4ncco4)nc(N)n4nc(CC5CCOC5)nc34)cn12` (single isomer, unassigned) [Example 107-2, 8-(3-methylimidazo[1,2-a]pyridin-6-yl)-7-(oxazol-2-yl)-2-((tetrahydrofuran-3-yl)methyl)-[1,2,4]triazolo[1,5-f]pyrimidin-5-amine] was tested, and the IC50 (hA2b) was 473 nM, the IC50 (hA2a) was 0.5 nM and the IC50 (hA1; [1]) was 34.5 nM. For the same compound, the IC50 (mA2a) was 27.7 nM.

`Nc1cc(-c2c(-c3ccc(F)cc3)nc(N)n3nc(Cc4ncccc4F)nc23)ccn1` [Example 38, 8-(2-aminopyridin-4-yl)-7-(4-fluorophenyl)-2-((3-fIuoropyridin-2-yl)methyl)-[1,2,4]triazolo[1,5-c]pyrmidin-5-amine] showed an IC50 (hA2b) of 38 nM, an IC50 (hA2a) of 41 nM and an IC50 (hA1; [1]) of 8.6 nM. For the same compound, the IC50 (mA2a) was 263 nM.

`Cn1cc(-c2c(-c3ccc4c(ccn4C)c3)nc(N)n3nc(Cc4ncccc4F)nc23)ccc1=O` [Example 97, 5-(5-amino-2-((3-fluoropyridin-2-yl)methyl)-7-(1-methyl-1H-indol-5-yl)-[1,2,4]triazolo[1,5-c]pyrimidin-8-yl)-1-methylpyridin-2(1H)-one] showed an IC50 (hA2b) of 1720 nM, an IC50 (hA2a) of 47 nM and an IC50 (hA1; [1]) of 19 nM. The IC50 (mA2a) was 120 nM.

`Cc1cc(-c2c(-c3ncco3)nc(N)n3nc(Cc4ncccc4F)nc23)cc(Cl)n1` [Example 82, 8-(2-chloro-6-methylpyridin-4-yI)-2-((3-fluoropyridin-2-yl)methyl)-7-(oxazol-2-yl)-[l,2,4]triazolo [1,5-c]pyrimidin-5-amine] was tested, and the IC50 (hA2b) was 2910 nM, the IC50 (hA2a) was 25 nM and the IC50 (hA1; [1]) was 2640 nM. The IC50 (mA2a) was 63 nM.

Work on `Cc1cnc2ccc(-c3c(-c4ccc(F)cc4)nc(N)n4nc(C[C@@H]5CCCN5C)nc34)cn12` [Example 122, (S)-7-(4-fluorophenyl)-8-(3-methylimidazo[1,2-a]pyridin-6-yl)-2-((l-methylpyrrolidin-2-yl)methyl)-[1,2,4]triazolo[1,5-c]pyrimidin-5-amine] yielded an IC50 (hA2b) of 93.5 nM, an IC50 (hA2a) of 0.3 nM and an IC50 (hA1; [1]) of 67.7 nM. The IC50 (mA2a) was 2.6 nM.

Work on `Cc1cnc2ccc(-c3c(-n4ccc(F)n4)nc(N)n4nc(Cc5ncccc5F)nc34)cn12` [Example 116, 7-(3-fluoro-1H-pyrazol-1-yl)-2-((3-fluoropyridin-2-yl)methyl)-8-(3-methylimidazo[l,2-a]pyridin-6-yl)-[l,2,4]triazolo[l,5-c]pyrimidin-5-amine] yielded an IC50 (hA2b) of 12.2 nM, an IC50 (hA2a) of 0.2 nM and an IC50 (hA1; [1]) of 7.9 nM. For the same compound, the IC50 (mA2a) was 0.2 nM.

`Nc1nc(-c2ncco2)c(-c2ccc3nccn3c2)c2nc(Cc3ncccc3OC(F)F)nn12` [Example 74, 2-((3-(difluoromethoxy)pyridin-2-yl)methyI)-8-(imidazo[1,2-a]pyridin-6-yl)-7-(oxazol-2-yl)-[1,2, 4]triazolo[1,5-c]pyrimidin-5-amine] was tested, and the IC50 (hA2b) was 14 nM, the IC50 (hA2a) was 0.8 nM and the IC50 (hA1; cAMP & FLIPR IC50 (nM) hA1, hADORA1/CHO cells) was 11 nM. The IC50 (mA2a) was 1.2 nM.

`Cc1cnc2ccc(-c3c(N4CCC5(COC5)C4)nc(N)n4nc(Cc5ncccc5F)nc34)cn12` [Example 110, 2-((3-fluoropyridin-2-yl)methyl)-8-(3-methylimidazo[1,2-a]pyridin-6-yl)-7-(2-oxa-6-azaspiro[3.4]octan-6-yl)-[l,2,4]triazolo[l,5-c]pyrimidin-5-amine] showed an IC50 (hA2b) of over 10000 nM, an IC50 (hA2a) of 795 nM and an IC50 (hA1; [1]) of 85.9 nM. It also gave an IC50 (mA2a) of 7190 nM.

`Cc1cnc2ccc(-c3c(-n4cc(F)cn4)nc(N)n4nc(Cc5ncccc5F)nc34)cn12` [Example 117, 7-(4-fluoro-1H-pyrazol-1-yl)-2-((3-fluoropyridin-2-yl)methyl)-8-(3-methylimidazo[l,2-a]pyridin-6-yl)-[1,2,4]triazolo[1,5-c]pyrimidin-5-amine] showed an IC50 (hA2b) of 16.4 nM, an IC50 (hA2a) of 0.2 nM and an IC50 (hA1; [1]) of 9.7 nM. It also gave an IC50 (mA2a) of 0.5 nM.

`Cc1cnc2ccc(-c3c(N4CCC4)nc(N)n4nc(Cc5c(F)cccc5F)nc34)cn12` [Example 124, 7-(azetidin-l-yl)-2-(2,6-difluorobenzyl)-8-(3-methylimidazo[1,2-a]pyridin-6-yl)-[1,2,4]triazolo [1,5-c]pyrimidin-5-amine] was tested, and the IC50 (hA2b) was 23.3 nM, the IC50 (hA2a) was 0.1 nM and the IC50 (hA1; [1]) was 16 nM. It also gave an IC50 (mA2a) of 3.9 nM.

`Nc1nc(-c2ccc(F)cc2)c(-c2ccc(=O)n(CCO)c2)c2nc(Cc3ncccc3F)nn12` [Example 95, 5-(5-amino-7-(4-fluorophenyl)-2-((3-fluoropyridin-2-yl)methyl)-[1,2,4]triazolo[1,5-c]pyrimidin-8-yl)-l-(2-hydroxyethyl)pyridin-2(1H)-one] was tested, and the IC50 (hA2b) was 241 nM, the IC50 (hA2a) was 3.7 nM and the IC50 (hA1; [1]) was 27 nM. The IC50 (mA2a) was 8.9 nM.

In the case of `CNc1cc(-c2c(-c3ccc(F)cc3)nc(N)n3nc(Cc4ncccc4F)nc23)ccn1` [Example 43, 7-(4-fluorophenyl)-2-((3-fluoropyridin-2-yl)methyl)-8-(2-(methylamino)pyridin-4-yl)-[1,2,4]triazolo[1,5-c]pyrimidin-5-amine], the IC50 (hA2b) is reported as 12 nM, the IC50 (hA2a) is reported as 19 nM and the IC50 (hA1; [1]) is reported as 24 nM. For the same compound, the IC50 (mA2a) was 41 nM.

`COCCc1nc2c(-c3ccc4ncc(C)n4c3)c(-c3ccc(F)cc3)nc(N)n2n1` [Example 114, 7-(4-fluorophenyl)-2-(2-methoxyethyl)-8-(3-methylimidazo[1,2-a]pyridin-6-yl)-[1,2,4]triazolo[1,5-c]pyrimidin-5-amine] showed an IC50 (hA2b) of 40.9 nM, an IC50 (hA2a) of 0.2 nM and an IC50 (hA1; [1]) of 5.7 nM. It also gave an IC50 (mA2a) of 0.4 nM.

`Cn1cnc2ccc(-c3c(-c4ccc(F)cc4)nc(N)n4nc(Cc5ncccc5F)nc34)cc21` [Example 69, 7-(4-fluorophenyl)-2-((3-fluoropyridin-2-yl)methyl)-8-(1-methyl-1H-benzo[d]imidazol-6-yl)-[1,2, 4]triazolo[l,5-c]pyrimidin-5-amine] was tested, and the IC50 (hA2b) was 4.69 nM, the IC50 (hA2a) was 0.1 nM and the IC50 (hA1; [1]) was 22 nM. For the same compound, the IC50 (mA2a) was 0.3 nM.

For `Cn1cc(-c2c(-c3ccccc3Cl)nc(N)n3nc(Cc4ncccc4F)nc23)ccc1=O` [Example 78, 5-(5-amino-7-(2-chlorophenyl)-2-((3-fluoropyridin-2-yl)methyl)-[1,2,4]triazolo[1,5-c]pyrimidin-8-yl)-l-methylpyridin-2(1H)-one], the IC50 (hA2b) was 1260 nM, the IC50 (hA2a) was 135 nM and the IC50 (hA1; [1]) was 1160 nM. It also gave an IC50 (mA2a) of 324 nM.

With `Cn1cc(-c2c(-n3cccn3)nc(N)n3nc(Cc4ncccc4F)nc23)ccc1=O` [Example 63, 5-[5-amino-2-[(3-fluoropyridin-2-yl)methyl]-7-(1H-pyrazol-1-yl)-[1,2,4]triazolo[1,5-c]pyrimidin-8-yl]-1-methyl-1,2-dihydropyridin-2-one] the IC50 (hA2b) was 1560 nM, the IC50 (hA2a) was 122 nM and the IC50 (hA1; [1]) was 250 nM. The IC50 (mA2a) was 125 nM.

`Cc1cnc2ccc(-c3c(-c4ncco4)nc(N)n4nc(CC5CCOC5)nc34)cn12` (single isomer, unassigned) [Example 107-1, 8-(3-methylimidazo[1,2-a]pyridin-6-yl)-7-(oxazol-2-yl)-2-((tetrahydrofuran-3-yl)methyl)-[1,2,4]triazolo[1,5-f]pyrimidin-5-amine] was tested, and the IC50 (hA2b) was 416 nM, the IC50 (hA2a) was 0.5 nM and the IC50 (hA1; [1]) was 54.6 nM. The IC50 (mA2a) was 32.7 nM.

`Cc1cnc2ccc(-c3c(N4CCCC4)nc(N)n4nc(Cc5ncccc5F)nc34)cn12` [Example 101, 2-((3*fluoropyridin-2-yl)methyl)-8-(3-methylimidazo[1,2-a]pyridin-6-yl)-7-(pyrrolidin-1-yl)-[1,2, 4]triazolo[l,5-c]pyrimidin-5-amine] showed an IC50 (hA2b) of 203 nM, an IC50 (hA2a) of 8.2 nM and an IC50 (hA1; [1]) of 6.6 nM. It also gave an IC50 (mA2a) of 58.1 nM.

Work on `CC(C)n1cc(-c2c(-c3ncco3)nc(N)n3nc(Cc4ncccc4F)nc23)ccc1=O` [Example 80, 5-(5-amino-2-((3-fluoropyridin-2-yl)methyl)-7-(oxazol-2-yl)-[1,2,4]triazolo[1,5-c]pyrimidin-8-yl)-1-isopropylpyridin-2(1H)-one] yielded an IC50 (hA2b) of 186 nM, an IC50 (hA2a) of 3.6 nM and an IC50 (hA1; [1]) of 25 nM. It also gave an IC50 (mA2a) of 4.9 nM.

In the case of `Cc1cc(-c2c(-c3ncco3)nc(N)n3nc(Cc4c(F)cccc4F)nc23)cc(C)n1` [Example 33, 2-[(2,6-difluorophenyl)methyl]-8-(2,6-dimethylpyridin-4-yl)-7-(1,3-oxazol-2-yl)-[1,2,4]triazolo[1,5-c]pyrimidin-5-amine], the IC50 (hA2b) is reported as 10000 nM, the IC50 (hA2a) is reported as 18 nM and the IC50 (hA1; [1]) is reported as 6940 nM. For the same compound, the IC50 (mA2a) was 109 nM.

Work on `Cc1cnc2ccc(-c3c(-c4ccc(F)cc4)nc(N)n4nc(CCN(C)C)nc34)cn12` [Example 120, 2-(2-(dimethylamino)ethyl)-7-(4-fluorophenyl)-8-(3-methylimidazo[l,2-a]pyridin-6-yl)-[l,2,4]tria zolo[1,5-c]pyrimidin-5-amine] yielded an IC50 (hA2b) of 146 nM, an IC50 (hA2a) of 0.6 nM and an IC50 (hA1; [1]) of 66.7 nM. The IC50 (mA2a) was 9.5 nM.
